Legend:
Settings in all cases: in vivo, po
Rattus norvegicus [1] = experiment: Total electrolytic excretion of chlorine in urine of rats after peroral administration of 348 uM/Kg of drug; format: ADME, organism-based
Rattus norvegicus [2] = experiment: Total electrolytic excretion of potassium in urine of rats after peroral administration of 105 uM/Kg of drug; format: ADME, organism-based
Rattus norvegicus [3] = experiment: Total electrolytic excretion of chlorine in urine of rats after peroral administration of 34.8 uM/Kg of drug; format: ADME, organism-based
Rattus norvegicus [4] = experiment: Total electrolytic excretion of sodium in urine of rats after peroral administration of 105 uM/Kg of drug; format: ADME, organism-based
Rattus norvegicus [5] = experiment: Total electrolytic excretion of potassium in urine of rats after peroral administration of 34.8 uM/Kg of drug; format: ADME, organism-based
Rattus norvegicus [6] = experiment: Total electrolytic excretion of potassium in urine of rats after peroral administration of 348 uM/Kg of drug; format: ADME, organism-based
Rattus norvegicus [7] = experiment: Total electrolytic excretion of chlorine in urine of rats after peroral administration of 105 uM/Kg of drug; format: ADME, organism-based
Rattus norvegicus [8] = experiment: Tested for the diuretic activity by measuring the urinary volume after peroral administering 34.8 uM/Kg of drug in rats; format: ADME, organism-based, Urine
Rattus norvegicus [9] = experiment: Tested for the diuretic activity by measuring the urinary volume after peroral administering 348 uM/Kg of drug in rats; format: ADME, organism-based, Urine
Rattus norvegicus [10] = experiment: Total electrolytic excretion of sodium in urine of rats after peroral administration of 34.8 uM/Kg of drug; format: ADME, organism-based
Rattus norvegicus [11] = experiment: Total electrolytic excretion of sodium in urine of rats after peroral administration of 348 uM/Kg of drug; format: ADME, organism-based
Rattus norvegicus [12] = experiment: Tested for the diuretic activity by measuring the urinary volume after peroral administering 105 uM/Kg of drug in rats; format: ADME, organism-based, Urine
Rattus norvegicus [13] = experiment: Ratio of Total electrolytic excretion of sodium and potassium in urine of rats after peroral administration of 105 uM/Kg of drug; format: ADME, organism-based
Rattus norvegicus [14] = experiment: Ratio of Total electrolytic excretion of sodium and potassium in urine of rats after peroral administration of 348 uM/Kg of drug; format: ADME, organism-based
Rattus norvegicus [15] = experiment: Ratio of Total electrolytic excretion of sodium and potassium in urine of rats after peroral administration of 34.8 uM/Kg of drug; format: ADME, organism-based

- Excretion Cl- (Rattus norvegicus [1]): 1.39 m equiv
- Excretion K+ (Rattus norvegicus [2]): 0.37 m equiv
- Excretion Cl- (Rattus norvegicus [3]): 1.04 m equiv
- Excretion Na+ (Rattus norvegicus [4]): 1.02 m equiv
- Excretion K+ (Rattus norvegicus [5]): 0.27 m equiv
- Excretion K+ (Rattus norvegicus [6]): 0.4 m equiv
- Excretion Cl- (Rattus norvegicus [7]): 1.12 m equiv
- V (Rattus norvegicus [8]): 5.6 mL
- V (Rattus norvegicus [9]): 9 mL
- Excretion Na+ (Rattus norvegicus [10]): 0.93 m equiv
- Excretion Na+ (Rattus norvegicus [11]): 1.37 m equiv
- V (Rattus norvegicus [12]): 7.3 mL
- Ratio (Rattus norvegicus [13]): 2.8
- Ratio (Rattus norvegicus [14]): 3.4
- Ratio (Rattus norvegicus [15]): 3.4
SMILES: c1ccc(N/C(=N/C2CCCCC2)N2CCOCC2)cc1

Source: ChEMBL document CHEMBL1127385, “Synthesis and diuretic activity of alkyl- and arylguanidine analogs of N,N'-dicyclohexyl-4-morpholinecarboxamidine in rats and dogs” (J Med Chem, 1994)
